# Values of other authors, collected in patent US6727058B2, “Intergrase assay” (priority 1998, dated 2004).
# Molecular target: lacR (Escherichia coli, UniProt P03023)
# Conditions: association constant; Barkley & Bourgeios 1980
# Chain of lacR (P03023 whole entry): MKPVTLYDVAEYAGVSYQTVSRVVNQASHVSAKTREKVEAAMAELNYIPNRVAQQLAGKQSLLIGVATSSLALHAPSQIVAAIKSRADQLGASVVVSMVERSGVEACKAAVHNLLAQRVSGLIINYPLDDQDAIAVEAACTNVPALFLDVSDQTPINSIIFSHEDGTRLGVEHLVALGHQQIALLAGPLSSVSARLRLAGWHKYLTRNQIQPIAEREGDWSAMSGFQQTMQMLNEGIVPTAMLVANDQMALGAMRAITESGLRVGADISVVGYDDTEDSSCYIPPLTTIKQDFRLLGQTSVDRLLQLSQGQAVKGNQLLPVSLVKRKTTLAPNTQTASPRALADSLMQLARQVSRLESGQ
smiles,measurement,value
CC(C)S[C@@H]1O[C@H](CO)[C@H](O)[C@H](O)[C@H]1O [IPTG],ka of lacR complexing IPTG,≈ 10^6 M^−1
